Laboratory results reported in patent US20040010001A1, “Methods and compositions for modulating cell proliferation and cell death” (priority 1999, published 2004).
Where two headings read alike, the source gives them in different places. Values belong to the compound of their own block, whether it stands above or below them.

Tests used:
Format in all cases: cell-based
[1] = tested on: Human prostate PC3 tumor cells; assay: aFGF/bFGF-induced resistance and reversal by suramin, sulforhodamine B assay; details: for Resistance, Folds, aFGF 0.3 ng/ml + bFGF 1 ng/ml / Resistance, Folds, aFGF 1 ng/ml + bFGF 3 ng/ml: no suramin, relative to control
Description: The experimental conditions are described briefly below. […] Cell number was measured using the sulforhodamine B assay which measures the total protein concentration. […] The FGF-induced resistance was dependent on the FGF concentrations, with a higher resistance at higher FGF concentrations.

[2] = tested on: Human prostate PC3 tumor cells; assay: Drug treatment and extracellular bFGF (ELISA), LDH release, cell number; details: for Extracellular LDH, % of control / Extracellular bFGF, % of control / Extracellular concentration bFGF / bFGF:LDH ratio: 72 hours
Description: The experimental conditions are described briefly below. […] The remaining cell number at the end of treatment was counted using a Coulter counter. The extracellular bFGF concentration was measured using ELISA. The release of lactate dehydrogenase (LDH) into the extracellular culture medium is indicative of cell death and gives a measure of the release of cellular content into the culture medium. If the increase in extracellular bFGF level is due to the release of bFGF upon cell death and lysis, the increase in bFGF will be accompanied by an increase in LDH in the same extent. This would result in an higher bFGF level and a constant bFGF-to-LDH ratio. On the other hand, an increase in extracellular bFGF due to an increase in bFGF production and release of bFGF from cells by processes other than cell lysis will result in an higher bFGF level and an higher bFGF-to-LDH ratio.

[3] = tested on: human prostate cancer PC3 cells; assay: Differential display of genes altered by bFGF treatment
Description: Differential display was used to identify the down-stream genes that are involved in the bFGF-induced multidrug resistance. […] By this method, the genes that were altered by bFGF treatment in PC3 cells but not in FaDu cells were identified. The identified genes are likely to be associated with the bFGF-induced multidrug resistance.
For differential display, total RNA was isolated from the cells and reverse-transcripted in single strand cDNA. PCR was performed using a pair of T and P primers. […] Five of these bands were reproducibly altered in PC3 cells, but not in FaDu cells. These bands were cut from the gels, reamplified and cloned into pGEM-T vector. Nine different clones were identified and sequenced. The gene sequence was compared to the data in the NCBI GenBank. […] Primers were synthesized for drug resistant cancer cells. Among the nine clones, five were altered reproducibly by bFGF treatment while bFGF had no effect on the remaining four clones. The expression of two of the known genes, TSC22 and VEGF, were increased by 20 to 40%, whereas the expression of the three new genes (temporarily named FSC-1, FSC-2, and FSC-3) were induced by 65%, 300%, and 40%. TSC22 and VEGF are not known to be regulated by bFGF.

rat MAT-LyLu cells = assay: Restoration of resistance by recombinant FGF in FGF-immunoprecipitated CM; details: added to CM depleted of both aFGF and bFGF
Description: The study was performed using rat MAT-LyLu cells. The reversal in CM-induced resistance was detected by measuring the changes in BrdU incorporation in treated samples relative to control samples. The source of CM was lung histocultures for both aFGF and bFGF experiments. The study used two controls: no CM (left solid curves, empty circles); with CM (right solid curves, empty squares). Upper left: CM minus […] (filled square); CM minus aFGF plus r-aFGF (filled circles, overlaps with the right CM-control curve). Upper right: CM minus bFGF (filled square, overlaps with the left control curve); CM minus bFGF plus r-bFGF (filled circle, overlaps with the right CM control curve). Lower left: Both the CM minus aFGF and bFGF (filled square) and the CM minus aFGF and bFGF plus aFGF (filled circle) curves overlap with the left control curve. Lower center: CM minus aFGF and bFGF (filled square, overlaps with left control curve); CM minus aFGF and bFGF plus r-bFGF (filled circle). Lower right: CM minus aFGF and bFGF (filled square, overlaps with left control curve); CM minus aFGF and bFGF plus r-aFGF and r-bFGF (filled circle, overlaps with the right CM-control curve).
aFGF or bFGF was immunoprecipitated with their respective monoclonal antibody (1 microgram/ml), in the presence of Protein G PLUS/protein A agarose (Oncogene). This procedure reduced the bFGF level in the original CM to below the detection limit of 5 pg/ml by the ELISA (Oncogene), and the aFGF level in the concentrated CM to below the detection limit by Western blotting.
The third study determined whether aFGF and/or bFGF are required for the resistance. Endogenous aFGF and/or bFGF were removed from the active CM by immunoprecipitation, and then reconstituted the CM using recombinant proteins. […] The fifth study confirmed that aFGF and bFGF were the main cause of chemoresistance, by using only r-aFGF and r-bFGF (i.e., without the immunoprecipitated CM) to induce resistance (FIG. 3). When given alone, r-aFGF had no effect whereas r-bFGF induced a concentration-dependent resistance. […]

Human prostate PC3 = assay: FGF-induced resistance, inhibition of BrdU incorporation; details: cell lines derived from solid tumors; 1 ng/ml r-aFGF plus 1 ng/ml r-bFGF vs 50 ng/ml r-bFGF alone
Description: Prior to drug treatment, cells were incubated for 4 days with tumor CM or with r-aFGF ad/or r-bFGF-containing medium, supplemented with 1% FBS (final protein concentration adjusted to 2 mg/ml). The medium was renewed every other day.
The antiproliferative drug effect in histocultures was measured as inhibition of ^3H-thymidine incorporation quantified by autoradiography (Yen, W. C. et al. (1996) Pharm. Res. 13:1305-1312) and, for monolayers, as inhibition of BrdU incorporation or as reduction of total proteins by the sulforhodamine B assay (Au, J. L.-S. et al. (1998) Cancer Res. 58:2141-2148). For the latter, the two assays yielded qualitatively similar results. Cell kill induced by 96-hour drug treatment was monitored by the release of LDH into the culture medium. LDH activity was monitored by the conversion of tetrazolium to formazan (detected at 490 nm).
The experimental conditions are described briefly below. Cells were pretreated with human recombinant r-aFGF and/or r-bFGF for 96 hours and then with drugs for 96 hours. For the studies on cells derived from the human prostate, lung, pharynx, colon and breast cancer cells, the drug effect was determined by the inhibition of BrdU incorporation. For the study on the human leukemic cells, the drug effect was measured by the MTT assay, which measures the number of metabolically active cells (Alley, M. C. et al (1988) Cancer Res 48:589-601).

[4] = Homo sapiens, read-out: IC50, Control (drug treatment only, without FGF treatment), No suramin, drug 96 hours
[5] = Homo sapiens, read-out: IC50, aFGF 0.3 ng/ml + bFGF 1 ng/ml, No suramin, FGF pretreatment 96 hours, drug 96 hours
[6] = Homo sapiens, read-out: IC50, aFGF 1 ng/ml + bFGF 3 ng/ml, No suramin, FGF pretreatment 96 hours, drug 96 hours
[7] = read-out: IC50, Control (without FGF treatment), Suramin, 15 μM, drug 96 hours with 15 μM suramin
[8] = read-out: IC50, aFGF 0.3 ng/ml + bFGF 1 ng/ml, With suramin, FGF pretreatment 96 hours, drug 96 hours with 15 micromolar suramin
[9] = read-out: IC50, aFGF 1 ng/ml + bFGF 3 ng/ml, With suramin, FGF pretreatment 96 hours, drug 96 hours with 15 micromolar suramin

Compound: CC[C@@]1(O)C(=O)OCc2c1cc1n(c2=O)Cc2cc3ccccc3nc2-1 [Camptothecin]
IC50 [1, 4]: 5.03 nM
IC50 [1, 5]: 11.4 nM
IC50 [1, 6]: 17.2 nM
Resistance, Folds, aFGF 0.3 ng/ml + bFGF 1 ng/ml [1]: 2.26 Folds
Resistance, Folds, aFGF 1 ng/ml + bFGF 3 ng/ml [1]: 3.42 Folds
IC50 [1, 7]: 4.8 nM
IC50 [1, 8]: 5.4 nM
IC50 [1, 9]: 5.78 nM
Remaining cell number at 72 hours (% of control) ([2]; drug concentration 2 NM): 83%
Remaining cell number at 72 hours × 10^6 ([2]; drug concentration 2 NM): 2.0 × 10^6
Extracellular LDH, % of control ([2]; drug concentration 2 NM): 137 % of control
Extracellular bFGF, % of control ([2]; drug concentration 2 NM): 145 % of control
Extracellular concentration bFGF ([2]; drug concentration 2 NM): 9.08 pg/mL
bFGF:LDH ratio ([2]; drug concentration 2 NM): 1.06
Remaining cell number at 72 hours (% of control) ([2]; drug concentration 6 NM): 50%
Remaining cell number at 72 hours × 10^6 ([2]; drug concentration 6 NM): 1.2 × 10^6
Extracellular LDH, % of control ([2]; drug concentration 6 NM): 182 % of control
Extracellular bFGF, % of control ([2]; drug concentration 6 NM): 221 % of control
Extracellular concentration bFGF ([2]; drug concentration 6 NM): 13.9 pg/mL
bFGF:LDH ratio ([2]; drug concentration 6 NM): 1.22
Remaining cell number at 72 hours (% of control) ([2]; drug concentration 20 NM): 21%
Remaining cell number at 72 hours × 10^6 ([2]; drug concentration 20 NM): 0.5 × 10^6
Extracellular LDH, % of control ([2]; drug concentration 20 NM): 219 % of control
Extracellular bFGF, % of control ([2]; drug concentration 20 NM): 279 % of control
Extracellular concentration bFGF ([2]; drug concentration 20 NM): 17.5 pg/mL
bFGF:LDH ratio ([2]; drug concentration 20 NM): 1.28

Compound: N.N.[Cl][Pt][Cl] [Cisplatin]
Resistance, Folds, aFGF 0.3 ng/ml + bFGF 1 ng/ml [1]: 1.76 Folds
Resistance, Folds, aFGF 1 ng/ml + bFGF 3 ng/ml [1]: 3.69 Folds
IC50 ([1]; read-out: IC50, Control (drug treatment only, without FGF treatment), No suramin, drug 96 hours): 2760 nM
IC50 [1, 7]: 2690 nM
IC50 ([1]; read-out: IC50, aFGF 0.3 ng/ml + bFGF 1 ng/ml, No suramin, FGF pretreatment 96 hours, drug 96 hours): 4850 nM
IC50 [1, 8]: 3090 nM
IC50 ([1]; read-out: IC50, aFGF 1 ng/ml + bFGF 3 ng/ml, No suramin, FGF pretreatment 96 hours, drug 96 hours): 10200 nM
IC50 [1, 9]: 3010 nM
Remaining cell number at 72 hours (% of control) ([2]; drug concentration 2000 NM): 86%
Remaining cell number at 72 hours × 10^6 ([2]; drug concentration 2000 NM): 1.9 × 10^6
Extracellular LDH, % of control ([2]; drug concentration 2000 NM): 169 % of control
Extracellular bFGF, % of control ([2]; drug concentration 2000 NM): 267 % of control
Extracellular concentration bFGF ([2]; drug concentration 2000 NM): 5.87 pg/mL
bFGF:LDH ratio ([2]; drug concentration 2000 NM): 1.58
Remaining cell number at 72 hours (% of control) ([2]; drug concentration 6000 NM): 45%
Remaining cell number at 72 hours × 10^6 ([2]; drug concentration 6000 NM): 1.0 × 10^6
Extracellular LDH, % of control ([2]; drug concentration 6000 NM): 534 % of control
Extracellular bFGF, % of control ([2]; drug concentration 6000 NM): 1561 % of control
Extracellular concentration bFGF ([2]; drug concentration 6000 NM): 95.9 pg/mL
bFGF:LDH ratio ([2]; drug concentration 6000 NM): 2.92
Remaining cell number at 72 hours (% of control) ([2]; drug concentration 20000 NM): 18%
Remaining cell number at 72 hours × 10^6 ([2]; drug concentration 20000 NM): 0.4 × 10^6
Extracellular LDH, % of control ([2]; drug concentration 20000 NM): 563 % of control
Extracellular bFGF, % of control ([2]; drug concentration 20000 NM): 1641 % of control
Extracellular concentration bFGF ([2]; drug concentration 20000 NM): 101 pg/mL
bFGF:LDH ratio ([2]; drug concentration 20000 NM): 2.88

IC50 [1, 4]: 0.33 nM
IC50 [1, 5]: 0.45 nM
IC50 [1, 6]: 0.78 nM
IC50 [1, 7]: 0.4 nM
IC50 [1, 8]: 0.42 nM
IC50 [1, 9]: 0.35 nM
Compound: CC[C@]1(O)C[C@@H]2CN(CCc3c([nH]c4ccccc34)[C@@](C(=O)OC)(c3cc4c(cc3OC)N(C)[C@H]3[C@@](O)(C(=O)OC)[C@H](OC(C)=O)[C@]5(CC)C=CCN6CC[C@]43[C@@H]65)C2)C1 [Vinblastine]
Resistance, Folds, aFGF 0.3 ng/ml + bFGF 1 ng/ml [1]: 1.36 Folds
Resistance, Folds, aFGF 1 ng/ml + bFGF 3 ng/ml [1]: 2.36 Folds
Remaining cell number at 72 hours (% of control) ([2]; drug concentration 0.5 NM): 74%
Remaining cell number at 72 hours × 10^6 ([2]; drug concentration 0.5 NM): 1.7 × 10^6
Extracellular LDH, % of control ([2]; drug concentration 0.5 NM): 263 % of control
Extracellular bFGF, % of control ([2]; drug concentration 0.5 NM): 675 % of control
Extracellular concentration bFGF ([2]; drug concentration 0.5 NM): 59.1 pg/mL
bFGF:LDH ratio ([2]; drug concentration 0.5 NM): 2.57
Remaining cell number at 72 hours (% of control) ([2]; drug concentration 1 NM): 43%
Remaining cell number at 72 hours × 10^6 ([2]; drug concentration 1 NM): 1.0 × 10^6
Extracellular LDH, % of control ([2]; drug concentration 1 NM): 326 % of control
Extracellular bFGF, % of control ([2]; drug concentration 1 NM): 1073 % of control
Extracellular concentration bFGF ([2]; drug concentration 1 NM): 94.0 pg/mL
bFGF:LDH ratio ([2]; drug concentration 1 NM): 3.29
Remaining cell number at 72 hours (% of control) ([2]; drug concentration 2 NM): 17%
Remaining cell number at 72 hours × 10^6 ([2]; drug concentration 2 NM): 0.4 × 10^6
Extracellular LDH, % of control ([2]; drug concentration 2 NM): 513 % of control
Extracellular bFGF, % of control ([2]; drug concentration 2 NM): 2046 % of control
Extracellular concentration bFGF ([2]; drug concentration 2 NM): 179 pg/mL
bFGF:LDH ratio ([2]; drug concentration 2 NM): 3.99

Compound: bFGF: basic Fibroblast Growth Factor used for treatment of PC3 cells
induction of expression of FSC-1 [3]: 65%
induction of expression of FSC-2 [3]: 300%
induction of expression of FSC-3 [3]: 40%

Compound: r-aFGF: human recombinant aFGF, identical to the 14 kDa human aFGF except for the extra methionine at the amino terminus
induction of resistance (rat MAT-LyLu cells): did not induce resistance
amplification of the r-bFGF effect by r-aFGF (Human prostate PC3): more than 50 fold
